Patent US20240225978A1, “METHODS AND COMPOSITIONS FOR PHARMACOLOGICAL TREATMENT OF BLEPHAROPTOSIS” (priority 2021, published 2024)
Counter-ions that a name gives are not always drawn.

Columns and labels:
[1] = test system: functional blepharoptosis; experiment: Randomized, double-blinded, controlled study of blepharoptosis treatment with naphazoline 0.1% ophthalmic solution; type: in vivo, human
Method: To evaluate the effects of an ophthalmic solution containing an α adrenergic agonist on blepharoptosis, a randomized, double-blinded, controlled study was conducted using naphazoline 0.1%. Participants with either unilateral or bilateral upper eyelid blepharoptosis were randomized to receive either control eye drops (control group) or an ophthalmic solution containing active ingredient naphazoline 0.1% (treatment group).
The composition of the treatment group included naphazoline hydrochloride (concentration 0.1% w/v), sodium chloride, boric acid, calcium chloride, magnesium chloride, potassium chloride, sodium borate, PURITE®, methylcellulose, and purified water. The ophthalmic drops of the control group were composed of all of the preceding compounds except for naphazoline hydrochloride.
Baseline external photographs of all participants were obtained before eye drop administration. Visual field and contrast sensitivity testing were also tested at baseline. Visual field testing was conducted using an OCULUS Easyfield® perimeter. Contrast sensitivity was tested using a Pelli-Robson Contrast Sensitivity Chart (Pelli D G, Robson J, Wilkins A J. The design of a new letter chart for measuring contrast sensitivity. Clin Vision Sci. 1988; 2187-99). After one eye drop was administered to one or both eyes depending on the presence of unilateral or bilateral blepharoptosis, a second photo was obtained 30 minutes later. After 60 minutes, visual field and contrast sensitivity tests were repeated. After 120 minutes, a third and final photo was obtained.
MRD-1 is the distance in millimeters from the upper eyelid margin to the light reflex within the pupil. Measurements were made using Image J software (US National Institutes of Health, Bethesda, MD, U.S.A., http://imagej.nih.gov/ij) by a single designated, blinded investigator. The pupil diameter was also measured at all time points. Secondary effects were recorded and included subject-reported eye irritation, pain, blurry vision, light sensitivity, as well as examiner-noted eye injection, eyelid retraction, and pupil diameter. MRD-1 at the two post-administration time points constituted the primary endpoint. Secondary endpoints included visual field assessment and contrast sensitivity testing.

cosmetic blepharoptosis [2] = experiment: Case study of cosmetic blepharoptosis treatment with naphazoline 0.1%; type: in vivo, human
Method: They also had brow asymmetry due to compensatory right eyebrow elevation, a separate cosmetic concern. One drop of an ophthalmic solution containing naphazoline 0.1% was administered to the right eye. After 30 minutes, the eyelid was over-elevated with an MRD-1 of 5.5 mm due to continued compensatory brow elevation of the subject's right eyebrow (FIG. 5b). […] Three hours after drop administration, the eyelid and brow symmetry were maintained (FIG. 5d).

cosmetic blepharoptosis [3] = experiment: Controlled study of topical naphazoline 0.1% to improve cosmetic blepharoptosis; type: in vivo, human
Method: A comparative study was conducted to investigate the effect of an ophthalmic solution containing naphazoline 0.1% on cosmetic blepharoptosis. Two groups, the control group and treatment group each consisting of 5 subjects, were matched in terms of age and gender. The control group received one drop of normal saline while the treatment group received one drop of an ophthalmic solution containing naphazoline 0.1%. At both 30 minutes and 120 minutes after drop administration, external photographs were obtained and analyzed using Image J imaging software. MRD-1 and the distance between the upper and lower eyelid margins were measured to quantitatively assess cosmetic blepharoptosis. Secondary effects were also recorded, including conjunctival injection, eye pain or irritation, light sensitivity, and pupil size.

[4] = test system: α adrenergic receptors within Müller's muscle; conditions: ophthalmic use for pupil dilation; background statement; cited from earlier work
[5] = test system: functional blepharoptosis; experiment: Randomized, controlled study of blepharoptosis treatment with tetrahydrozoline 0.1% ophthalmic solution; type: in vivo, human
Method: To evaluate the effects of an ophthalmic solution containing an α adrenergic agonist (tetrahydrozoline) on blepharoptosis, a randomized, controlled study was conducted. Participants with both unilateral or bilateral blepharoptosis were randomized to receive either the control eye drop or an ophthalmic solution containing active ingredient tetrahydrozoline 0.1%. Subjects and drop administrators were blinded to the intervention. […] The composition of the treatment group included tetrahydrozoline hydrochloride (concentration 0.1% w/v), sodium chloride, boric acid, calcium chloride, magnesium chloride, potassium chloride, sodium borate, PURITE®, methylcellulose, and purified water. The ophthalmic drops of the control group were composed of all of the preceding compounds except for tetrahydrozoline hydrochloride. Baseline external photographs of all participants were obtained before eye drop administration. After one eye drop was administered, a second photo was obtained 30 minutes later. After 90 minutes, a third and final photo was obtained. The pupil diameter in millimeters was also measured in photos at all time points. Measurements were made using Image J software by a single designated, blinded investigator. Secondary effects from the intervention were recorded including subject-reported eye irritation, pain, blurry vision, light sensitivity, as well as examiner-noted eye injection, eyelid retraction, and pupil size change from baseline.

With `c1ccc2c(CC3=NCCN3)cccc2c1` [Naphazoline, naphazoline hydrochloride] the “difference in proportion of individuals who reported minor side effects, treatment vs control group” value ([1]; 0.1% ophthalmic solution) was “not statistically significant”, the “visual field and contrast sensitivity improvement compared to the control group” value ([1]; 0.1% ophthalmic solution, 60 minutes after drop) was “greater” and the “improvement in MRD-1 compared to the control group” value ([1]; 0.1% ophthalmic solution, at 30 minutes and 120 minutes) was “statistically significant improvement”. The “Contrast Sensitivity Δ (mean)” value ([1]; Pelli-Robson chart, 60 minutes after one drop 0.1%, baseline 1.29, control 0.03, P 0.03) was 0.69, the “MRD1 Δ 30 minutes (mean, mm)” value ([1]; one drop of 0.1% w/v ophthalmic solution, 19 subjects, baseline MRD1 0.93 mm, 30 minutes after drop, control 0.02, P <0.001) was 2.15 mm and the “MRD1 Δ 120 minutes (mean, mm)” value ([1]; one drop of 0.1% w/v ophthalmic solution, 19 subjects, 120 minutes after drop, control 0.01, P 0.009) was 2.08 mm. The “overall effect on eyelids, visual field, contrast sensitivity and cosmetic appearance” value ([1]; one drop of ophthalmic composition 0.1% administered twice daily (as summarised in b67 for Example 1)) was “resulted in eyelid elevation, improvement of a superior visual field defect, increased contrast sensitivity, and improved cosmetic appearance of the eyes, eyelids, and eyebrows”, the “Secondary Effects (%)” value ([1]; proportion of subjects, one drop 0.1%, control 9.5, P 0.17) was 10.5% and the “VF Δ (mean, % correct)” value ([1]; visual field, OCULUS Easyfield perimeter, 60 minutes after one drop 0.1%, baseline 33.8, control 2.1, P <0.001) was 56.6 % correct. For the same molecule, the “eyelid and brow symmetry after brow relaxation” value (cosmetic blepharoptosis [2]; one drop 0.1%, FIG. 5c (120 minutes)) was “achieved both eyelid and brow symmetry”, the “eyelid and brow symmetry three hours after drop administration” value (cosmetic blepharoptosis [2]; one drop 0.1%, three hours) was “maintained” and the “MRD-1 of the right eye” value (cosmetic blepharoptosis [2]; subject, one drop 0.1% ophthalmic solution to the right eye, after 30 minutes, baseline 2.5 mm, eyelid over-elevated due to compensatory brow elevation) was 5.5 mm. The “difference in secondary effects, including pupil size, between the two groups” value (cosmetic blepharoptosis [3]; 0.1% ophthalmic solution) was “no difference”, the “improvement in MRD-1 and eyelid separation compared to the control group” value (cosmetic blepharoptosis [3]; 0.1% ophthalmic solution, 30 and 120 minutes) was “statistically significant improvement” and the “MRD1 Δ 30 minutes (mean, %)” value (cosmetic blepharoptosis [3]; one drop 0.1% ophthalmic solution, 5 subjects, baseline MRD1 2.4 mm, control (normal saline) 3.8, P 0.01) was 42%. The “MRD1 Δ 120 minutes (mean, %)” value (cosmetic blepharoptosis [3]; one drop 0.1% ophthalmic solution, 5 subjects, control 1.9, P 0.02) was 38%, the “Eyelid Margin Distance Δ 120 minutes (mean, mm)” value (cosmetic blepharoptosis [3]; one drop 0.1%, control 0.02, P 0.03) was 1.33 mm and the “Pupil Size Δ 30 minutes (mean, %)” value (cosmetic blepharoptosis [3]; one drop 0.1%, control 6.7, P 0.37) was 10%. The “Minor Side Effects (%)” value (cosmetic blepharoptosis [3]; one drop 0.1%, control 20, P 0.49) was 20% and the “Eyelid Margin Distance Δ 30 minutes (mean, mm)” value (cosmetic blepharoptosis [3]; one drop 0.1%, distance between upper and lower eyelid margins, control 0.03, P 0.009) was 1.45 mm.
For `CNC[C@H](O)c1cccc(O)c1` [phenylephrine], the “duration of pupillary dilation and disabling light sensitivity” value [4] is listed as “up to seven hours” and the “duration of the effect of eyelid elevation” value [4] is listed as “less than ten minutes”.
With `c1ccc2c(c1)CCCC2C1=NCCN1` (centres unmarked) [Tetrahydrozoline, tetrahydrozoline hydrochloride] the “difference in proportion of individuals who reported minor side effects, treatment vs control group” value ([5]; 0.1% ophthalmic solution) was “not statistically significant”, the “pupillary size change compared to the control” value ([5]; 0.1% ophthalmic solution) was “greater in the treatment group compared to the control, however, this change was not statistically significant” and the “blepharoptosis improvement compared to the control group” value ([5]; 0.1% ophthalmic solution, both time points) was “statistically significant at both time points”. For the same molecule, the “Minor Side Effects (%)” value ([5]; one drop 0.1%, control 2.1, P 0.07) was 6.7%, the “Pupil Size Δ 30 minutes (mean, %)” value ([5]; one drop 0.1%, control 5.8, P 0.09) was 9.3% and the “MRD1 Δ 30 minutes (mean, mm)” value ([5]; one drop of 0.1% w/v ophthalmic solution, 11 subjects, baseline MRD1 0.85 mm, control 0.04, P 0.01) was 2.01 mm. For the same molecule, the “MRD1 Δ 120 minutes (mean, mm)” value ([5]; one drop of 0.1% w/v ophthalmic solution, 11 subjects, control 0.02, P 0.009) was 1.97 mm.
